Laboratory results taken from PMC5811830 (Journal of Clinical Pharmacology, 2017).
Where two headings read alike, the source gives them in different places.

Assays:
CYP2C9 = details: higher than clinical concentrations; cited from earlier work
P‐glycoprotein (P‐gp) = details: in vitro data; cited from earlier work
[1] = clinically relevant exposures; cited from earlier work
CYP2B6 = details: higher than clinical concentrations; cited from earlier work
CYP2D6 = details: higher than clinical concentrations; cited from earlier work
[2] = Treatment-emergent adverse events and on-study deaths in the DDI study arms; assay type: in vivo, human
[3] = assay type: in vivo, human; details: for AUC0-264 geometric least-squares mean ratio (90%CI) (test/reference) / Cmax geometric least-squares mean ratio (90%CI) (test/reference): with vs without clarithromycin
[4] = assay type: in vivo, human; details: for Reduction of Cmax in the presence of rifampin: ixazomib 4 mg oral, rifampin 600 mg once daily; for AUC0-last geometric least-squares mean ratio (90%CI) (test/reference) / Cmax geometric least-squares mean ratio (90%CI) (test/reference): with vs without rifampin
[5] = assay type: in vivo, human; details: for Cmax geometric least-squares mean ratio (90%CI) (test/reference): with vs without ketoconazole
CYP2C8 = details: higher than clinical concentrations; cited from earlier work
CYP3A4 = details: higher than clinical concentrations; cited from earlier work
CYP2C19 = details: higher than clinical concentrations; cited from earlier work
CYP1A2 = details: higher than clinical concentrations; cited from earlier work
Period effect analysis = assay type: in vivo, human; details: pooled ketoconazole DDI, food effect and relative bioavailability arms
[6] = humans; cited from earlier work
intestinal P‐gp = details: multiple doses of rifampin, duodenal biopsies, Western blotting; cited from earlier work
[7] = cited from earlier work
[8] = Clarithromycin arm (N = 21), cycle 1 only
[9] = Rifampin arm (N = 38), test and reference groups
[10] = test condition: ixazomib 4 mg oral day 8 with rifampin 600 mg once daily, N = 16

## CC(C)C[C@H](NC(=O)CNC(=O)c1cc(Cl)ccc1Cl)B(O)O [ixazomib]
CYP2C9
  Estimated relative contribution of 2C9 to metabolism: < 1%
P‐glycoprotein (P‐gp)
  P-gp substrate status: low‐affinity substrate
[1]
  Effect on the QTc interval: does not prolong the QTc interval
CYP2B6
  Estimated relative contribution of 2B6 to metabolism: 16%
CYP2D6
  Estimated relative contribution of 2D6 to metabolism: 5%
[2]; [8]
  Any AE, n (%): 16 (76) n (%)
  Any drug-related AE, n (%): 4 (19) n (%)
  Any drug-related grade ≥3 AE, n (%): 0 n (%)
  Any drug-related serious AE, n (%): 0 n (%)
  Any grade ≥3 AE, n (%): 2 (10) n (%)
  Any serious AE, n (%): 2 (10) n (%)
  On-study deaths, n (%): 0 n (%)
[2]; Ketoconazole arm (N = 29)
  AE leading to discontinuation, n (%): 8 (28) n (%)
  Any AE, n (%): 29 (100) n (%)
  Any drug-related AE, n (%): 27 (93) n (%)
  Any drug-related grade ≥3 AE, n (%): 10 (34) n (%)
  Any drug-related serious AE, n (%): 3 (10) n (%)
  Any grade ≥3 AE, n (%): 18 (62) n (%)
  Any serious AE, n (%): 12 (41) n (%)
  On-study deaths, n (%): 2 (7) n (%)
[2]; [9]
  AE leading to discontinuation, n (%): 4 (11) n (%)
  Any AE, n (%): 37 (97) n (%)
  Any drug-related AE, n (%): 32 (84) n (%)
  Any drug-related grade ≥3 AE, n (%): 7 (18) n (%)
  Any drug-related serious AE, n (%): 2 (5) n (%)
  Any grade ≥3 AE, n (%): 15 (39) n (%)
  Any serious AE, n (%): 7 (18) n (%)
  On-study deaths, n (%): 1 (3) n (%)
[2]; Total (N = 88)
  AE leading to discontinuation, n (%): 13 (15) n (%)
  Any AE, n (%): 82 (93) n (%)
  Any drug-related AE, n (%): 63 (72) n (%)
  Any drug-related grade ≥3 AE, n (%): 17 (19) n (%)
  Any drug-related serious AE, n (%): 5 (6) n (%)
  Any grade ≥3 AE, n (%): 35 (40) n (%)
  Any serious AE, n (%): 21 (24) n (%)
  On-study deaths, n (%): 3 (3) n (%)
[2]; across the 3 DDI study arms (N = 88)
  Patients with a study drug-related AE: 72%
[2]; across the 3 study arms, 17 patients
  Patients with study drug-related grade 3 AEs: 19%
[2]; across the 3 study arms, 35 patients
  Patients with grade ≥3 AEs: 40%
[2]; across the 3 study arms, n = 2
  Study drug-related grade 3 AE: thrombocytopenia: 2%
  Study drug-related grade 3 AE: vomiting: 2%
[2]; across the 3 study arms, n = 3
  Study drug-related grade 3 AE: diarrhea: 3%
  Study drug-related grade 3 AE: nausea: 3%
[2]; across the 3 study arms, n = 9
  Study drug-related grade 3 AE: fatigue: 10%
[2]; across the 3 study arms, n = 10
  Study drug-related AE: weight loss: 11%
[2]; across the 3 study arms, n = 12
  Study drug-related AE: dehydration: 14%
[2]; across the 3 study arms, n = 13
  Study drug-related AE: asthenia: 15%
[2]; across the 3 study arms, n = 15
  Study drug-related AE: decreased appetite: 17%
[3]; observed, ketoconazole and clarithromycin DDI studies
  Increase in AUC with the strong CYP3A inhibitors ketoconazole and clarithromycin: ≤ 11%
[3]
  AUC0-264 geometric least-squares mean ratio (90%CI) (test/reference): 1.11
  Cmax geometric least-squares mean ratio (90%CI) (test/reference): 0.96
[3]; listed as Ixazomib
  AUC0-264 geometric least-squares mean ratio (90%CI) (test/reference): 1.11 (0.86‐1.43)
  Cmax geometric least-squares mean ratio (90%CI) (test/reference): 0.96 (0.67‐1.36)
[4]
  Reduction of Cmax in the presence of rifampin: 54%
  AUC0-last geometric least-squares mean ratio (90%CI) (test/reference): 0.26
  Cmax geometric least-squares mean ratio (90%CI) (test/reference): 0.46
[4]; listed as Ixazomib
  Reduction of Cmax in the presence of rifampin: approximately 54%
  AUC0-last geometric least-squares mean ratio (90%CI) (test/reference): 0.26 (0.18‐0.37)
  Cmax geometric least-squares mean ratio (90%CI) (test/reference): 0.46 (0.29‐0.73)
[4]; [10]
  Geometric mean AUC0-last, h·ng/mL (%CV): 232 (50) h·ng/mL
  Geometric mean Cmax, ng/mL (%CV): 25.7 (50) ng/mL
  Median Tmax, h (range): 1.45 (0.5‐4.12) h
[5]; test condition: ixazomib 2.5 mg oral, period 2 with ketoconazole
  Geometric mean AUC0-264, h·ng/mL (%CV), not corrected for the period effect: 1150 (46) h·ng/mL
[5]
  Cmax geometric least-squares mean ratio (90%CI) (test/reference): 1.01
[5]; listed as Ixazomib
  Cmax geometric least-squares mean ratio (90%CI) (test/reference): 1.01 (0.78‐1.30)
CYP2C8
  Estimated relative contribution of 2C8 to metabolism: 6%
CYP3A4
  Estimated relative contribution of 3A4 to metabolism: 42%
CYP2C19
  Estimated relative contribution of 2C19 to metabolism: 5%
CYP1A2
  Estimated relative contribution of 1A2 to metabolism: 26%
Period effect analysis
  Magnitude of the period effect (period 2 AUC vs period 1 AUC), pooled analysis: 1.91 fold
[6]
  Orally administered radiolabeled ixazomib recovered in urine: 62%
  Urinary excretion representing the parent drug: < 3.5%

## CO[C@H]1/C=C/O[C@@]2(C)Oc3c(C)c(O)c4c(O)c(c(/C=N/N5CCN(C)CC5)c(O)c4c3C2=O)NC(=O)/C(C)=C\C=C\[C@H](C)[C@H](O)[C@@H](C)[C@@H](O)[C@@H](C)[C@H](OC(C)=O)[C@@H]1C [rifampin]
Intestinal P‐gp
  Assumed increase in intestinal P-gp activity: 4 fold

## COc1cc2nccc(Oc3ccc(NC(=O)Nc4cc(C)on4)c(Cl)c3)c2cc1OC [tivozanib]
[7]; ketoconazole 400 mg/day
  Effect of steady-state ketoconazole on tivozanib AUC: did not alter
[7]; rifampin 600 mg/day
  Decrease in tivozanib AUC with rifampin: 53%
